Earlier results, collected in patent US20090285767A1, “USE OF OZONATED LIQUIDS AND PEROXIDES TO WHITEN TEETH” (priority 2008, published 2009).

Conditions: gaseous ozone, device of the Lynch '985 patent

O=[O+][O-] [gaseous ozone, ozone]
whitening of extrinsic discoloration, effect on brown-colored melanoidins: ability of gaseous ozone to whiten extrinsic discoloration
